# Measurements taken from PubChem BioAssay (NCI).
# Values joined by “and” are separate entries in the source; they are usually repeats but may differ in a detail not shown here. Equal entries are not always repeated.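 Following 48 hours of exposure in 96-well plates, responses at five concentrations were used to interpolate endpoints linearly. GI50 marks 50% less growth. TGI: total growth inhibition.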
# Key:
# Test in all cases: NCI anticancer screen, dose series, 48 h
# 786-0 renal = system: 786-0 renal
# A498 renal = system: A498 renal
# ACHN renal = system: ACHN renal
# BT-549 breast = system: BT-549 breast
# COLO 205 colon = system: COLO 205 colon
# DU-145 prostate = system: DU-145 prostate
# EKVX NSCLC = system: EKVX NSCLC
# HCC-2998 colon = system: HCC-2998 colon
# HCT-116 colon = system: HCT-116 colon
# HCT-15 colon = system: HCT-15 colon
# HL-60(TB) leukemia = system: HL-60(TB) leukemia
# HOP-62 NSCLC = system: HOP-62 NSCLC
# HOP-92 NSCLC = system: HOP-92 NSCLC
# HS 578T breast = system: HS 578T breast
# HT29 colon = system: HT29 colon
# IGROV1 ovarian = system: IGROV1 ovarian
# K-562 leukemia = system: K-562 leukemia
# KM12 colon = system: KM12 colon
# LOX IMVI melanoma = system: LOX IMVI melanoma
# M14 melanoma = system: M14 melanoma
# MALME-3M melanoma = system: MALME-3M melanoma
# MCF7 breast = system: MCF7 breast
# MDA-MB-231 breast = system: MDA-MB-231 breast
# MDA-MB-435 = system: MDA-MB-435
# MDA-N = system: MDA-N
# MOLT-4 leukemia = system: MOLT-4 leukemia
# NCI-H226 lung = system: NCI-H226 lung
# NCI-H23 lung = system: NCI-H23 lung
# NCI-H460 lung = system: NCI-H460 lung
# NCI-H522 lung = system: NCI-H522 lung
# NCI/ADR-RES ovarian = system: NCI/ADR-RES ovarian
# OVCAR-3 ovarian = system: OVCAR-3 ovarian
# OVCAR-5 ovarian = system: OVCAR-5 ovarian
# OVCAR-8 ovarian = system: OVCAR-8 ovarian
# PC-3 prostate = system: PC-3 prostate
# RPMI-8226 leukemia = system: RPMI-8226 leukemia
# RXF 393 renal = system: RXF 393 renal
# SF-268 CNS = system: SF-268 CNS
# SF-295 CNS = system: SF-295 CNS
# SF-539 CNS = system: SF-539 CNS
# SK-MEL-2 melanoma = system: SK-MEL-2 melanoma
# SK-MEL-5 melanoma = system: SK-MEL-5 melanoma
# SK-OV-3 ovarian = system: SK-OV-3 ovarian
# SN12C renal = system: SN12C renal
# SNB-19 CNS = system: SNB-19 CNS
# SW-620 colon = system: SW-620 colon
# T-47D breast = system: T-47D breast
# TK-10 renal = system: TK-10 renal
# U251 CNS = system: U251 CNS
# UACC-62 melanoma = system: UACC-62 melanoma
# UO-31 renal = system: UO-31 renal
# A549 NSCLC = system: A549 NSCLC
# CAKI-1 renal = system: CAKI-1 renal
# CCRF-CEM leukemia = system: CCRF-CEM leukemia
# OVCAR-4 ovarian = system: OVCAR-4 ovarian
# SK-MEL-28 melanoma = system: SK-MEL-28 melanoma
# SNB-75 CNS = system: SNB-75 CNS
# UACC-257 melanoma = system: UACC-257 melanoma
structure (smiles),measurement,setting,value
COc1cc2c3c(n(CCCNCCO)c(=O)c2cc1OC)-c1cc2c(cc1C3=O)OCO2,TGI,786-0 renal,118 nM and 21.6 nM
same,GI50,A498 renal,33 nM
same,TGI,A498 renal,1870 nM and 1490 nM
same,TGI,ACHN renal,176 nM and 369 nM
same,TGI,BT-549 breast,7970 nM
same,TGI,COLO 205 colon,2000 nM and 5420 nM
same,GI50,DU-145 prostate,29.9 nM
same,GI50,EKVX NSCLC,257 nM and 557 nM
same,TGI,EKVX NSCLC,1220 nM
same,GI50,HCC-2998 colon,978 nM
same,TGI,HCC-2998 colon,1970 nM and 11100 nM
same,GI50,HCT-116 colon,66.2 nM and 63.9 nM
same,TGI,HCT-116 colon,1050 nM and 686 nM
same,GI50,HCT-15 colon,548 nM and 657 nM
same,TGI,HCT-15 colon,2080 nM and 7760 nM
same,GI50,HL-60(TB) leukemia,< 27.7 nM
same,GI50,HOP-62 NSCLC,12.7 nM and 97.9 nM
same,GI50,HOP-92 NSCLC,831 nM and 102 nM
same,TGI,HOP-92 NSCLC,2770 nM and 3560 nM
same,TGI,HS 578T breast,27300 nM
same,GI50,HT29 colon,50.2 nM
same,TGI,HT29 colon,589 nM
same,TGI,IGROV1 ovarian,2380 nM
same,GI50,K-562 leukemia,2160 nM and 511 nM
same,TGI,K-562 leukemia,> 100000 nM
same,GI50,KM12 colon,3160 nM
same,TGI,LOX IMVI melanoma,169 nM
same,GI50,M14 melanoma,57.5 nM
same,TGI,M14 melanoma,573 nM and 679 nM
same,GI50,MALME-3M melanoma,252 nM and 143 nM
same,TGI,MALME-3M melanoma,4060 nM and 2000 nM
same,TGI,MCF7 breast,155 nM and 113 nM
same,GI50,MDA-MB-231 breast,1090 nM
same,TGI,MDA-MB-231 breast,2030 nM and 5180 nM
same,GI50,MDA-MB-435,528 nM and 1340 nM
same,GI50,MDA-N,2300 nM
same,TGI,MOLT-4 leukemia,27.9 nM
same,GI50,NCI-H226 lung,47.4 nM
same,TGI,NCI-H226 lung,1460 nM and 269 nM
same,GI50,NCI-H23 lung,43.7 nM
same,TGI,NCI-H23 lung,171 nM and 493 nM
same,TGI,NCI-H460 lung,230 nM and 79.7 nM
same,GI50,NCI-H522 lung,14.4 nM
same,TGI,NCI-H522 lung,966 nM and 3800 nM
same,GI50,NCI/ADR-RES ovarian,295 nM
same,TGI,NCI/ADR-RES ovarian,> 100000 nM
same,TGI,OVCAR-3 ovarian,5300 nM
same,GI50,OVCAR-5 ovarian,14400 nM
same,TGI,OVCAR-8 ovarian,5340 nM
same,GI50,PC-3 prostate,10200 nM
same,GI50,RPMI-8226 leukemia,173 nM
same,TGI,RPMI-8226 leukemia,> 100000 nM
same,GI50,RXF 393 renal,139 nM and 268 nM
same,TGI,RXF 393 renal,1260 nM and 5750 nM
same,GI50,SF-268 CNS,< 10 nM
same,TGI,SF-268 CNS,448 nM
same,GI50,SF-295 CNS,< 18.8 nM
same,TGI,SF-295 CNS,1290 nM and 4270 nM
same,TGI,SF-539 CNS,1360 nM
same,GI50,SK-MEL-2 melanoma,2550 nM and 10900 nM
same,TGI,SK-MEL-2 melanoma,5840 nM and 23700 nM
same,TGI,SK-MEL-5 melanoma,1510 nM and 1560 nM
same,GI50,SK-OV-3 ovarian,603 nM and 663 nM
same,TGI,SK-OV-3 ovarian,2150 nM and 19000 nM
same,GI50,SN12C renal,< 11.9 nM
same,TGI,SN12C renal,1190 nM
same,TGI,SNB-19 CNS,> 100000 nM
same,GI50,SW-620 colon,22.8 nM
same,TGI,SW-620 colon,2600 nM and 2030 nM
same,TGI,T-47D breast,1520 nM
same,TGI,TK-10 renal,28500 nM
same,GI50,U251 CNS,19.1 nM and < 38.3 nM
same,TGI,U251 CNS,1090 nM and 1620 nM
same,GI50,UACC-62 melanoma,39.4 nM
same,TGI,UACC-62 melanoma,842 nM and 779 nM
same,GI50,UO-31 renal,18.3 nM and 181 nM
O=C1c2ccccc2S(=O)(=O)c2ccccc21,TGI,786-0 renal,> 100000 nM
same,TGI,A498 renal,> 100000 nM
same,TGI,A549 NSCLC,> 100000 nM
same,TGI,ACHN renal,> 100000 nM
same,TGI,BT-549 breast,> 100000 nM
same,TGI,CAKI-1 renal,> 100000 nM
same,TGI,CCRF-CEM leukemia,> 100000 nM
same,TGI,COLO 205 colon,> 100000 nM
same,TGI,DU-145 prostate,> 100000 nM
same,TGI,EKVX NSCLC,> 100000 nM
same,TGI,HCC-2998 colon,> 100000 nM
same,TGI,HCT-116 colon,> 100000 nM
same,TGI,HCT-15 colon,> 100000 nM
same,TGI,HL-60(TB) leukemia,> 100000 nM
same,TGI,HOP-62 NSCLC,> 100000 nM
same,TGI,HOP-92 NSCLC,> 100000 nM
same,TGI,HS 578T breast,> 100000 nM
same,TGI,HT29 colon,> 100000 nM
same,TGI,IGROV1 ovarian,> 100000 nM
same,TGI,K-562 leukemia,> 100000 nM
same,TGI,KM12 colon,> 100000 nM
same,TGI,LOX IMVI melanoma,> 100000 nM
same,TGI,M14 melanoma,> 100000 nM
same,TGI,MALME-3M melanoma,> 100000 nM
same,TGI,MCF7 breast,> 100000 nM
same,TGI,MDA-MB-231 breast,> 100000 nM
same,TGI,MDA-MB-435,> 100000 nM
same,TGI,MDA-N,> 100000 nM
same,TGI,MOLT-4 leukemia,> 100000 nM
same,TGI,NCI-H226 lung,> 100000 nM
same,TGI,NCI-H23 lung,> 100000 nM
same,TGI,NCI-H460 lung,> 100000 nM
same,TGI,NCI-H522 lung,> 100000 nM
same,TGI,NCI/ADR-RES ovarian,> 100000 nM
same,TGI,OVCAR-3 ovarian,> 100000 nM
same,TGI,OVCAR-4 ovarian,> 100000 nM
same,TGI,OVCAR-5 ovarian,> 100000 nM
same,TGI,OVCAR-8 ovarian,> 100000 nM
same,TGI,PC-3 prostate,> 100000 nM
same,TGI,RPMI-8226 leukemia,> 100000 nM
same,TGI,RXF 393 renal,> 100000 nM
same,TGI,SF-268 CNS,> 100000 nM
same,TGI,SF-295 CNS,> 100000 nM
same,TGI,SF-539 CNS,> 100000 nM
same,TGI,SK-MEL-2 melanoma,> 100000 nM
same,TGI,SK-MEL-28 melanoma,> 100000 nM
same,TGI,SK-MEL-5 melanoma,> 100000 nM
same,TGI,SK-OV-3 ovarian,> 100000 nM
same,TGI,SN12C renal,> 100000 nM
same,TGI,SNB-19 CNS,> 100000 nM
same,TGI,SNB-75 CNS,> 100000 nM
same,TGI,SW-620 colon,> 100000 nM
same,TGI,T-47D breast,> 100000 nM
same,TGI,TK-10 renal,> 100000 nM
same,TGI,U251 CNS,> 100000 nM
same,TGI,UACC-257 melanoma,> 100000 nM
same,TGI,UACC-62 melanoma,> 100000 nM
same,TGI,UO-31 renal,> 100000 nM
